Assay results from US20110212455A1, “METHOD OF SCREENING MATERIAL FOR IMPROVING SKIN FUNCTIONS” (AMOREPACIFIC CORPORATION, priority 2008, published 2011).

Assays:
MAP17 gene = MAP17 gene expression in human keratinocytes treated with ginsenoside-Re (Q-RT-PCR); format: cell-based; settings: ginsenoside-Re 10 uM, 24 hours, vs untreated control, FIG. 5 (A)
Experimental: (§1) Various human keratinocytes were treated with a variety of materials, and change in expression of MAP17 and filaggrin genes were monitored. It was investigated whether ginsenoside-Re, a kind of ginsenoid derived from the fruit of ginseng, regulates the expression of MAP17 and filaggrin genes. Human keratinocytes were purchased from Lonza, Inc. and cultured in KBM-2 medium (Clonetics CC-3103) in a CO2 incubator under a condition of 37° C. and 5% CO2.
(§2) The cultured human keratinocytes without any treatment were used as a control group. For a test group, the human keratinocytes were further cultured for 24 hours after adding ginsenoside-Re (10 uM). Ginsenoside-Re was purchased from Wako (Kanagawa, Japan) and prepared into a solution according to the manufacturer's instructions. […]
(§3) The isolated RNA was purified once more using Qiagen RNeasy kit (Qiagen, Valencia, Calif.) and RNA quality and concentration were verified using Agilent 2100 BioAnalyzer (Agilent Technologies, Santa Clara, Calif., USA). cDNA was synthesized from the isolated RNA using Superscript RT II kit (Invitrogen, Carlsbad, Calif.), and change in gene expression was quantitatively analyzed by means of Q-RT-PCR. Change in the expression pattern of MAP17 (Hs00173779_m1) and filaggrin (Hs00856927_g1) was evaluated using TaqMan® gene expression assay kit (Applied Biosystems, Foster City, Calif.) and is shown in FIG. 5.

filaggrin gene = filaggrin gene expression in human keratinocytes treated with ginsenoside-Re (Q-RT-PCR); format: cell-based; settings: ginsenoside-Re 10 uM, 24 hours, vs untreated control, FIG. 5 (B)
Experimental: as §1, §2, §3

With CC(C)=CCC[C@](C)(O[C@@H]1O[C@H](CO)[C@@H](O)[C@H](O)[C@H]1O)[C@H]1CC[C@]2(C)[C@@H]1[C@H](O)C[C@@H]1[C@@]3(C)CC[C@H](O)C(C)(C)[C@@H]3[C@@H](O[C@@H]3O[C@H](CO)[C@@H](O)[C@H](O)[C@H]3O[C@@H]3O[C@@H](C)[C@H](O)[C@@H](O)[C@H]3O)C[C@]12C [ginsenoside-Re] the “expression of the MAP17 gene in human keratinocytes” value (MAP17 gene) was “markedly decreases” and the “expression of the filaggrin gene in human keratinocytes” value (filaggrin gene) was “increases”.
